Experimental data from patent US20150224089A1, “COMBINATIONS OF IKKi/TBK1 INHIBITORS WITH BETA ADRENERGIC AGONISTS OR SYMPATHETIC NERVOUS SYSTEM ACTIVATORS” (THE REGENTS OF THE UNIVERSITY OF MICHIGAN, priority 2014, published 2015).

Columns and labels:
3T3-L1 adipocytes [1] = test: cAMP levels in 3T3-L1 adipocytes; type: cell-based
Procedure: (§1) (A) Glycerol release from 3T3-L1 adipocytes treated with or without different concentrations of TNFα as indicated for 24 hr followed by treatment with or without 10 μM ISO or 50 μM FSK. (B) cAMP levels from 3T3-L1 adipocytes treated with or without 100 ng/ml TNFα for 24 hr followed by treatment with or without 10 μM ISO or 50 μM FSK in the presence or absence of pretreatment of 50 μM Amlexanox (Am). (C) cAMP levels from 3T3-L1 adipocytes treated with or without 100 ng/ml TNFα for 24 hr followed by treatment with or without 50 μM FSK in the presence or absence of pretreatment of 1 μM CAY10576 (CAY). (D) Immunoblots of whole cell lysates from 3T3-L1 adipocytes treated with or without different concentrations of TNFα as same as FIG. 2A for 24 hr followed by treatment with or without 10 μM ISO or 50 μM FSK. Results were replicated in multiple experiments. ‘[’ indicates total HSL. ‘n.s.’ represents non-specific band. Arrow indicates CGI-58. (E) Immunoblots of whole cell lysates from 3T3-L1 adipocytes treated with or without 50 ng/ml TNFα or 100 μg/ml poly (I:C) for 24 hr followed by treatment with or without 10 μM ISO for 15 min in the presence or absence of pretreatment with increasing concentrations (0, 10, 50, and 200 μM) of amlexanox for 30 min.
(A) cAMP levels from 3T3-L1 adipocytes expressing empty vector, Flag-IKKε, or Flag-TBK1 treated with or without 50 μM FSK, 250 μM IBMX, or together for 15 min. (B) cAMP levels from 3T3-L1 adipocytes expressing empty vector, Flag-IKKε, or Flag-TBK1 treated with or without 10 μM ISO or 50 μM FSK together with or without 10 μM Zardaverine (Zarda) for 15 min. (C) 32P phospho-image of in vitro kinase reaction using either immunoprecipitated HA-PDE3B from HEK293T cells or 1 μg MBP (myelin basic protein) as a substrate with recombinant kinases as indicated. (D) Immunoblots of immunoprecipitation with anti-HA antibodies followed by treatment with or without CIP (top panel) and whole cell lysates (bottom panel) from Cos-1 cells co-expressing HA-PDE3B with Flag-IKKε/TBK1 or Flag-IKKε/TBK1 K38A. D.E. stands for dark exposure and L.E. stands for light exposure. (E) Immunoblots of GST-14-3-3 pulldown from HEK293T cells co-expressing HA-PDE3B with Flag-TBK1 or Flag-TBK1 K38A.
Obesity is accompanied by infiltration of proinflammatory macrophages into adipose tissue; these cells secrete inflammatory cytokines, such as TNFα, which generate insulin resistance by stimulating catabolic pathways (Hotamisligil, 2006; Lumeng et al., 2007; Ye and Keller, 2010; Ouchi et al., 2011; herein incorporated by reference in their entireties). Although TNFα is known to increase lipolysis in adipocytes (Zhang et al., 2002; Souza et al., 2003; Green et al., 2004; Plomgaard et al., 2008; herein incorporated by reference in their entireties), there is also evidence of a counterinflammatory response in obesity that may serve to repress energy expenditure (Gregor and Hotamisligil, 2011; Saltiel, 2012; Calay and Hotamisligil, 2013; Reilly et al., 2013; herein incorporated by reference in their entireties). Experiments were conducted during development of embodiments of the present invention using TNFα to model the inflammatory milieu of obese adipose tissue in cell culture to determine whether the cytokine might also regulate β-adrenergic signaling in this context. While short-term treatment with TNFα augmented the increase in cAMP produced by forskolin treatment, this effect declined after 12 hr. […] Thus, the catabolic effects of the proinflammatory cytokine TNFα in adipocytes are transient and followed by an inhibitory phase.
Treatment of 3T3-L1 adipocytes with TNFα for 24 hr induced the expression of IKKε and increased TBK1 phosphorylation at the active site in a manner that was dependent on the activity of IKKβ and the NFκB pathway (Reilly et al., 2013; herein incorporated by reference in its entirety). […]

3T3-L1 adipocytes [2] = test: Glycerol release (lipolysis) from 3T3-L1 adipocytes; type: cell-based; conditions: for lipolysis (glycerol release): empty vector-expressing cells, 10 μM
Procedure: (§2) (A) Fold increase in Ucp1 expression in 3T3-L1 adipocytes expressing empty vector, Flag-IKKε, or Flag-IKKε K38A following treatment with or without 10 μM ISO (black bars) or 10 μM CL-316,243 (CL, gray bars) for 4 hr. (B) Glycerol release from 3T3-L1 adipocytes expressing empty vector (white bars), Flag-IKKε (black bars), or Flag-IKKε K38A (gray bars) treated with or without 10 μM ISO or 10 μM CL. (C) Immunoblots of whole cell lysates from FIG. 1B. Results were replicated in triplicate. D.E. stands for dark exposure and L.E. stands for light exposure. (D) Immunoblots of whole cell lysates from 3T3-L1 adipocytes expressing empty vector or Flag-IKKε treated with or without 50 μM FSK for 15 min. (E) cAMP levels from 3T3-L1 adipocytes expressing empty vector, Flag-IKKε, or Flag-IKKε K38A treated with or without 10 μM ISO or 50 μM FSK for 15 min.
as §1
The obesity-dependent increase was modeled in the noncanonical IKKs by overexpressing IKKε in 3T3-L1 adipocytes, followed by assay of glycerol release in response to ISO or CL-316,243. […] Overexpression of TBK1 reduced phosphorylation of HSL in response to isoproterenol or the adenylyl cyclase activator, forskolin (FIG. 1). Identical results were obtained when IKKε was overexpressed in 3T3-L1 adipocytes stimulated with forskolin (FIG. 1D), as detected by western blotting with an anti-phospho-PKA substrate motif antibody. […]

3T3-L1 adipocytes [3] = test: Ucp1 gene expression in 3T3-L1 adipocytes; type: cell-based; conditions: empty vector-expressing cells; 10 μM for 4 hr; treated relative to control samples
Procedure: as §2
Sympathetic activation of adipose tissue is involved in maintaining energy balance by stimulating lipolysis and fat oxidation (Coppack et al., 1994; Langin, 2006; Festuccia et al., 2011; herein incorporated by reference in their entireties). Activation of β-adrenergic signaling by either β-adrenergic agonists or cold exposure in white and brown adipose tissue initiates a cascade of events through cyclic AMP (cAMP), culminating in the transcriptional upregulation of Ucp1, which results in increased proton leak and energy expenditure (Himms-Hagen et al., 2000; Cao et al., 2004; Yehuda-Shnaidman et al., 2010; herein incorporated by reference in their entireties). […] This effect was further analyzed by overexpressing IKKε in 3T3-L1 adipocytes and examining Ucp1 gene expression after treatment with the non-selective β-adrenergic agonist, isoproterenol (ISO), or the β3-adrenergic agonist, CL-316,243. Fold difference in Ucp1 gene expression was calculated by normalization of relative Ucp1 mRNA levels in treated relative to control samples. […] The induction of Ucp1 gene expression in response to ISO or CL-316,243 was blunted when WT IKKε was overexpressed in these cells. […]

3T3-L1 adipocytes [4] = test: Immunoblots of β-adrenergic/PKA signaling (HSL, perilipin, PKA substrate, p38 phosphorylation) in 3T3-L1 adipocytes; type: cell-based; conditions: treatment with Poly (I:C)
Procedure: as §1, with “Results were replicated in multiple experiments. ‘[’ indicates total HSL. ‘n.s.’ represents non-specific band.” left out
Experiments were conducted during development of embodiments of the present invention to determine whether the repression of β-adrenergic sensitivity produced by longer-term treatment with TNFα is due to increased activity of the noncanonical IKKs.

diet-induced obese mice = test: Serum FFA and glycerol after CL-316,243 injection in ND- or HFD-fed mice; type: in vivo; conditions: normal diet mice, vehicle and amlexanox-treated; 15 min after IP CL-316,243 injection
Procedure: (A) Fold increase in serum FFA (left panel) and glycerol (right panel) levels 15 min after CL-316,243 injection in ND- or HFD-fed mice treated with amlexanox or vehicle control for 4 days. (B) Glycerol release from ex vivo epididymal (left panel) and inguinal (right panel) WATs after 1 hr pretreatment with amlexanox or vehicle. CL-316,243 treatment was started at time zero. (C) Immunoblots in inguinal WAT lysates from FIG. 5B after 60 min of CL-316,243 treatment. (D) cAMP levels in epididymal WAT 20 min after CL-316,243 (CL) or saline control injection in HFD-fed mice treated with amlexanox or vehicle control for 4 days. (E) Immunoblots in epididymal WAT 5 min after CL-316,243 or saline control injection in HFD-fed mice treated with amlexanox or vehicle control for 4 days. (F) Relative oxygen comsumption of mice in each treatment group.
To test the functional importance of the noncanonical IKKs in maintaining energy balance in vivo, experiments were conducted during development of embodiments of the present invention to investigate whether the administration of a selective inhibitor of IKKε and TBK1, amlexanox, can reverse diet-induced catecholamine resistance in rodentsMice were fed a high fat or normal diet, treated them with amlexanox by oral gavage for 4 days (prior to the point when weight loss is seen), and then gave a single intraperitoneal (IP) injection of the β3-adrenergic agonist CL-316,243. Injection of CL-316,243 stimulated a threefold increase in serum FFA and glycerol levels in both vehicle and amlexanox-treated mice on normal diet (ND).

CC(C)Cn1c(=O)n(C)c(=O)c2[nH]cnc21 [IBMX]
cAMP production in response to forskolin in adipocytes expressing IKKε or TBK1 (3T3-L1 adipocytes [1]; 250 μM IBMX, 50 μM FSK, 15 min): rescued the full stimulation of cAMP production

COc1cc2ncn(-c3cc(OCc4ccccc4S(C)(=O)=O)c(C#N)s3)c2cc1OC [CAY10576]
rescue of TNFα-decreased forskolin-stimulated cAMP production (3T3-L1 adipocytes [1]; preincubation with 1 μM CAY10576, 100 ng/ml TNFα 24 hr, 50 μM FSK): largely rescued

CC(C)NCC(O)c1ccc(O)c(O)c1 (centres unmarked) [isoproterenol]
lipolysis (glycerol release) (3T3-L1 adipocytes [2]): increased lipolysis
increase in Ucp1 mRNA levels (3T3-L1 adipocytes [3]): 1.6 fold

Poly (I:C)
stimulation of cAMP production in response to β-adrenergic stimulation (3T3-L1 adipocytes [1]; treatment with Poly (I:C)): reduced
stimulation of lipolysis in response to β-adrenergic stimulation (3T3-L1 adipocytes [2]; treatment with Poly (I:C)): reduced
stimulation of phosphorylation in response to β-adrenergic stimulation (3T3-L1 adipocytes [4]): reduced

C[C@H](Cc1ccc2c(c1)OC(C(=O)[O-])(C(=O)[O-])O2)NC[C@H](O)c1cccc(Cl)c1.[Na+].[Na+] [CL-316,243]
increase in serum FFA levels (diet-induced obese mice): threefold
increase in serum glycerol levels (diet-induced obese mice): threefold
lipolysis (glycerol release) (3T3-L1 adipocytes [2]): increased lipolysis
increase in Ucp1 mRNA levels (3T3-L1 adipocytes [3]): twofold
